Laboratory results reported in patent US20250135016A1, “MOLECULAR LOGIC GATES FOR CONTROLLED MATERIAL DEGRADATION” (University of Washington, priority 2016, published 2025).
Where “and” joins values, the source holds several entries; their conditions need not be identical. Equal entries are not always repeated. Where two headings read alike, the source gives them in different places.

What was measured:
[1] = In situ oscillatory rheology of hydrogel formation with pretreated E∧P crosslinker; format: physicochemical
Protocol: Reaction products were characterized using matrix-assisted laser desorption/ionization time-of-flight mass spectrometry (MALDI-TOF). […] To further investigate, the enzyme AND photo linker (E∧P) was pretreated with different combinations of enzyme and light, added to a stoichiometrically defined amount of PEG-tetraBCN, and characterized by in situ oscillatory rheology to monitor evolution of material properties.
Oscillatory rheology was performed on an Anton Paar MCR301 rheometer equipped with a cone and plate geometry (25 mm diameter, 1° cone) at 25° C. and 25 Hz with a 1% strain. A solution of PEG-tetraBCN (3 mM, Method S22) and the E∧P crosslinker (6 mM, Method S12) in MMP buffer was reacted in situ, while G′ and G″ were measured as a function of time over the course of two hours. Peptide crosslinkers were pretreated with MMP and/or light as described in Method S24 in experimental triplicate. Hydrogels with similar stiffnesses formed when the E∧P crosslinker was untreated (G′=1660±170), exposed to just light (G′=1580±130), or exposed to just enzyme (G′=1540±110).

[2] = Protocol: Azide functionalized glass slides were synthesized as reported in previous works. […] PEG3500-diazide (37.5 μL, 40 mM) was then added, and the resulting solution was rapidly mixed, centrifuged, and then pipetted (25 μL) onto the azide functionalized glass slide. The gels were allowed to gel to completion for 1 hr, then covered with a RainX treated glass slide, and PBS (1×) was added to swell and rinse the gel overnight at room temperature, protected from light. The following morning, two of the gels (gel 3 and 4) was exposed to 365 nm light at 20 mW/cm^2 for 10 minutes with a hatched square (100 μm) chrome photomask. Following the light treatment, gel 3 was returned to PBS (1×) and protected from light. Gels 2 and 4 were placed in a solution of Dithiothreitol (DTT, 1 mM) for 4 hours. Gels 2 and 4 were then transferred to PBS (1×) and protected from light for 30 mins. Gel 1 remained in PBS and protected from light the entire time. The resulting fluorescence of these gels were imaged using a confocal scanning microscope at 488 nm.
[3] = test system: hS5 bone marrow-derived stromal cells; assay: Hydrogel-encapsulated cell release studies; format: cell-based, human
Protocol: Four human bone marrow-derived stromal cell lines [hS5], including one non-fluorescent control and three each stably transfected to express a single fluorescent protein [mCherry, green fluorescent protein (GFP), or blue fluorescent protein (BFP)], were cultured at 37° C. in Roswell Park Memorial Institute medium 1640 (RPMI-1640, Corning) supplemented with 10% FBS and 1% PS.
Hydrogels were formed sandwiched between an azide-functional glass slide and a Rain-X®-treated glass slide separated by two 0.005″ thick silicone spacers (McMaster-Carr). A precursor solution containing PEG-tetraBCN (Method S22, 2 mM), the P crosslinker (Method S7, 4 mM), and hS5-GFP^+ (40×10^6 cells mL^−1) was injected between the silicone spacers and reacted for one hour. Subsequently, a precursor solution of PEG-tetraBCN (2 mM), the R∨P crosslinker (Method S10, 4 mM), and hS5-BFP^+ (40×10^6 cells mL^−1) was injected between the hS5-GFP^+ encapsulated region and a silicone spacer. […]
Following each degradative step, cells that remained encapsulated in the intact gel were imaged using fluorescent confocal microscopy. Three channels—one for each fluorescent protein—were simultaneously monitored. For visualization, fluorescence corresponding to mCherry (excitation 587 nm, emission 626-703 nm), GFP (excitation 489 nm, emission 499-570 nm), and BFP (excitation 405 nm, emission 413-494 nm) were false colored as red, green, and blue, respectively. […]
Gels were degraded and the viability of the released cells was assessed. […]
Cells released from the gels and stained with the Live/Dead® assay were imaged on a Nikon Eclipse TE2000-U microscope using filter cubes corresponding to both live (excitation 480/40 nm filter, emission 535/50 nm filter) and dead (excitation 560/20 nm filter, emission 630/60 nm filter) staining. Viability was determined for each treatment by standard image analysis. […]

[4] = all eight input combinations of reductant, MMP enzyme and light; endpoint supernatant fluorescence
[5] = Multi-logic hydrogel treatment and confocal microscopy; format: physicochemical; details: three-region gel
Protocol: Hydrogels were formed sandwiched between an azide-functional glass slide and a Rain-X®-treated glass slide separated by two 0.005″ thick silicone spacers (McMaster-Carr). A precursor solution containing PEG-tetraBCN-FAM (Method S22, 2 mM) and the P crosslinker (Method S7, 4 mM) was injected between the silicone spacers (0.005 inches) and reacted for one hour. Subsequently, a precursor solution of PEG-tetraBCN-Cyanine5 (Method S22, 2 mM) and the R∨P crosslinker (Method S10, 4 mM) was injected between the FAM functionalized region and a silicone spacer and reacted for one hour. This was repeated on the other side of the FAM functionalized region with PEG-tetraBCN-AF568 (Method S22, 2 mM) and R∧P crosslinker (Method S13, 4 mM). Hydrogels were equilibrated and stored in PBS. […]
Hydrogels were imaged using fluorescent confocal microscopy. Three channels—one for each fluorophore—were simultaneously monitored. For visualization, fluorescence corresponding to AF568 (excitation 578 nm, emission 594-627 nm), FAM (excitation 515 nm, emission 520-569 nm), and Cyanine5 (excitation 646 nm, emission 663-675 nm) were false colored as red, green, and blue, respectively.

## HCC(CH2)2CO-RGK(CO(CH2)3N3)GPQGIWGQGK(oNB-N3)RK(CO(CH2)3N3)—NH2 [E∧P]
[1]; E∧P linker pretreated with both enzyme and light, did not form a gel
  Final storage modulus G′: 200±30 Pa
[1]; E∧P linker pretreated with enzyme (MMP) only
  Final storage modulus G′: 1580±130 Pa and 1540±110 Pa
[1]; E∧P linker pretreated with light only
  Final storage modulus G′: 1540±110 Pa and 1580±130 Pa
[1]; E∧P linker untreated, reacted with PEG-tetraBCN
  Final storage modulus G′: 1660±170 Pa
[1]; all samples
  Final loss modulus G″: ~50 Pa

## FAM-GRCG-PL-GCGRK(CO(CH2)3N3)—NH2 [FAM-Photolabile-AND-Reducible Pendant]
[2]; Gel 1, control, PBS only
  Gel fluorescence (FAM release): no visible loss in fluorescence
[2]; Gel 2, DTT only (1 mM, 4 hours)
  Gel fluorescence (FAM release): no visible loss in fluorescence
[2]; Gel 3, photomasked light only (365 nm, 20 mW/cm^2, 10 minutes)
  Gel fluorescence (FAM release): no visible loss in fluorescence
[2]; Gel 4, photomasked light and DTT
  Gel fluorescence (FAM release): release in only the exposed areas

## N3-oNB-RGGRK(N3)—NH2 [P]
[3]; R gels BME 0.25 mM 45 minutes, P gels UV 10 minutes, E gels MMP-8 0.20 nM 60 minutes
  Gel degradation for viability studies: complete hydrogel degradation
[3]; cell-laden tri-color gel, BME 0.25 mM, 37° C., 45 minutes
  Response to subsequent reducing treatment: fully intact
[3]; cell-laden tri-color gel, λ=365 nm, 10 minute exposure, photomask
  Response to masked UV light: degradation
[4]
  Hydrogel degradation response: degrading only when the programmed cue was present
[5]; BME 0.25 mM, 45 minutes, after masked light
  Response to subsequent reducing treatment: fully intact
[5]; λ=365 nm, 10 minute exposure, slitted photomask
  Response to masked UV light: degradation
